Laboratory results published in patent publication US20250375539A1, “COMPOSITIONS OF DISPERSED SYSTEMS FOR BIOMEDICAL APPLICATIONS, PROCESS FOR THEIR PREPARATION AND USES THEREOF” (SUPERBRANCHE, priority 2022, published 2025).

Experiment: Isothermal compression of Langmuir monolayers of dendrons at the air/water interface
Format: physicochemical
Conditions: 25±0.5° C.
Procedure: The evaluation of anchoring capability of the dendrons at interfacial film of microbubbles was evaluated by investigating the isothermal compression of Langmuir monolayers formed by these molecules at the air/water interface. Langmuir monolayers constitute a bidimensional experimental model of the interfacial film of the nanoemulsions. In the above-mentioned experiments, the surface pressure (π) versus molecular area (A) isotherms were recorded using a Langmuir minitrough (KSV NIMA, Finland) equipped with two movable barriers (initial area: 365×75 mm^2, compression speed: 10 cm^2 min^−1, which corresponded to a reduction of the total area of ˜3.6% min^−1). π was measured using the Wilhelmy plate (paper) method. The trough was maintained at 25±0.5° C. Solutions of oligo(ethylene oxide) dendrons (1 mmol L^−1) in chloroform were spread on the surface of water (320 mL). Subsequently, 15 min was allowed for chloroform to evaporate and the film to equilibrate before compression was initiated. All the experiments were performed at least three times. Since our Langmuir trough only allowed for a surface area compression of about 10, isotherms were recorded in three separate experiments.

CCOP(=O)(Cc1cc(CP(=O)(OCC)OCC)cc(OCCNC(=O)c2cc(OCCOCCOCCOCCOC)c(OCCOCCOCCOCCOC)c(OCCOCCOCCOCCOC)c2)c1)OCC [DM]
collapse pressure / surface pressure of the Langmuir monolayer: ~10 mN m^−1
